# Reference: patent US11179342B2, “Peptide coacervates and methods of use thereof” (NANYANG TECHNOLOGICAL UNIVERSITY, priority 2018, dated 2021)
# Entries after “also recorded” stand apart in the source; their conditions may differ. Residues, ends and D or L forms follow the SMILES beside them.
# Legend:
# NIH3T3 mouse fibroblasts = experiment: MTT assay; assay type: cell-based
# Description: NIH3T3 mouse fibroblasts were used to estimate the cytotoxicity of DgHBP-2 peptide and coacervates. The fibroblasts were cultivated using Dulbecco's modified eagle medium supplemented with 10% of fetal bovine serum, 100 units/mL of penicillin and 100 μg/mL of streptomycin in a 37° C. incubator with 5% CO2. 100 μL of cells with a cell density of 1×10^4 cells/mL were seeded onto a 96-well plate (Thermo Fisher Scientific). After 24 hours, the cell culture media was substituted with 100 μL of fresh media containing different concentration of peptide or insulin-loaded coacervates. After another 24 hours, 10 μL of MTT solution (concentration: 5 mg/mL) was added into each well. Cell culture media and the excess MTT was then removed after 4 hours of incubation. 100 μL of DMSO was subsequently added into each well to dissolve the formazan crystals. The dissolved crystals were then measured at 570 nm on a 96-well microplate reader (Infinity M200, Tecan). Relative cell viability is calculated as:
# [formula] where At, Ac, and Ab represent absorbance values of wells containing tested cells, control cells and DMSO, respectively. In Vitro Release Assay (Timepoint Assay)
# [1] = Encapsulation of Dox and MNPs by coacervates; assay type: physicochemical; settings: DgHBP-2-peptide coacervates
# Description: Dox (Final concentration: 0.04 mg mL^−1) and MNPs (Final concentration: 0.008% v/v) were first added to phosphate buffer (pH 9.5 0.1M) to their final concentrations. DgHBP-2 peptide stock solution (10 mg mL^−1) was successively added to the buffer/drug mixture in a 1:9 ratio to trigger encapsulation and coacervation. Gentle pipetting was then done to mix the final mixture.
# [2] = cited from earlier work
# [3] = Liquid-liquid phase separation by optical microscopy; assay type: physicochemical
# Description: In Example 2 below, phase separation behavior of protein variants and peptides was studied using a Zeiss Axio Scope A1 microscope (Carl Zeiss Pte Ltd., Germany) in the reflection mode, with differential interference contrast (DIC) filters. Images were taken with an AxioCam MRc 5 camera under the control of AxioVision software.
# Liquid-liquid phase separation properties of protein variants and peptides at different buffer conditions were assessed using the method described in (Tan et al, Nat. Chem. Biol. 11, 488-495). Briefly, protein/peptide stock solution (10 mg/mL in 10 mM acetic acid, pH 3.3) was added to a buffer solution in a volume ratio 1:5 (protein/peptide stock:buffer). The mixture was then pipetted onto a microscopy glass slide and imaged using the optical microscope.
# [4] = Dynamic light scattering of GY-23 peptide; assay type: physicochemical
# Description: FIGS. 30A-30C. SAXS and DLS of GY-23 peptide. (A) SAXS experimental curves of the peptide before and after coacervation. After LLPS, the dilute and coacervate-rich phases were measured following centrifugation. The q-3 power-law region of the scattering data is highlighted, with the black line a guide for the eye. The calculated fit for the peptide assemblies from the IFT method is also presented as a continuous red line. (B) Corresponding p(r) profile calculated from the SAXS data in (A) using Eq. 1 (materials and methods). (C) Hydrodynamic diameter (DH) measured by DLS of GY-23 in acetic acid (pH 3.3) and after coacervation (pH 7.0).
# FIGS. 34A-34B Correlation functions of the DLS measurements of GY-23 peptide before and after coacervation (FIG. 33C) showing the intensity correlation function, C(τ) vs. the correlation time, τ. (A) Sample before coacervation (10 mM in acetic acid, pH 3.3). The curve with a single decay at short correlation times represents a monomodal distribution of rather small particles in the nanometer range. (B) Sample after LLPS (coacervation buffer, pH 7.0).
compound,measurement,setting,value
"CC(C)C[C@H](NC(=O)CNC(=O)[C@H](Cc1c[nH]cn1)NC(=O)CNC(=O)[C@H](Cc1ccc(O)cc1)NC(=O)[C@@H]1CCCN1C(=O)CNC(=O)[C@H](Cc1c[nH]cn1)NC(=O)CNC(=O)[C@H](Cc1ccc(O)cc1)NC(=O)[C@@H]1CCCN1C(=O)CNC(=O)[C@H](Cc1c[nH]cn1)NC(=O)CNC(=O)[C@H](Cc1ccc(O)cc1)NC(=O)[C@@H](NC(=O)CNC(=O)[C@H](Cc1c[nH]cn1)NC(=O)CNC(=O)[C@H](Cc1ccc(O)cc1)NC(=O)[C@@H](NC(=O)CNC(=O)[C@H](Cc1c[nH]cn1)NC(=O)CN)C(C)C)C(C)C)C(=O)N[C@@H](Cc1ccc(O)cc1)C(=O)N[C@@H](Cc1c[nH]c2ccccc12)C(=O)O [DgHBP-2 peptide, GHGVYGHGVYGHGPYGHGPYGHGLYW] (H-GHGVYGHGVYGHGPYGHGPYGHGLYW-OH)",cytotoxicity,NIH3T3 mouse fibroblasts,negligible
"COc1cccc2c1C(=O)c1c(O)c3c(c(O)c1C2=O)C[C@@](O)(C(=O)CO)C[C@@H]3O[C@H]1C[C@H](N)[C@H](O)[C@H](C)O1 [Dox, Doxorubicin]",encapsulation efficiency of Dox,[1],~40%
same,unencapsulated Dox,[1],60%
same,pKa,[2],~8.46
GHGLY GAGFA GHGLH GFA GHGLY (GHGLYGAGFAGHGLHGFAGHGLY) [GY-23],morphology of the separated phase,[3]; optical micrographs after LLPS,coacervate micro-droplets suspended in solution as well as a dense hydrogel-like structure; also recorded: micro-droplets as well as hydrogel-like condensed coacervates
same,ability to undergo LLPS / phase separation,[3]; various pH and salt (NaCl) concentration,phase-separated
same,hydrodynamic diameter (DH),"[4]; acetic acid (pH 3.3), before LLPS",ca. 8 nm
same,hydrodynamic diameter (DH),"[4]; pH 7.0, initiation of LLPS",around 50 nm
